Usually IC50 stands for the midpoint of a concentration-inhibition curve.

One assay relates to SH SY5Y cells. As to the kind of experiment: Cell viability assay for amyloid toxicity using MTT reduction. The note with it: 10 μM Aβ(1-42), 24 h incubation, MTT reduction as measure of cell viability, read-out: IC50 protecting SH SY5Y cells from a toxic insult of 10 μM Aβ(1-42). Type of assay: cell-based. As to the method:
Aβ(1-42) was prepared for amyloid aggregation and toxicity assays by dissolving Aβ(1-42) HCl salt in hexafluoroisopropanol (HFIP), with brief sonication and vortexing. This solution of the Aβ(1-42) peptide in HFIP was stored at 4° C. @ 2 mM. When required, an aliquot of this stock solution was freeze-dried and dissolved in DMSO to 200 times the required final assay concentration (e.g. 2 mM for a final assay concentration of 10 μM).
A 20 mM stock solution of each test compound was prepared in DMSO, and aliquots of these solutions were used to prepare further stock solutions of each test compound in DMSO, ranging in concentration from 3 μM up to 10 mM. These stock solutions were prepared for use as and when required and stored at −20° C. (maximum of 3 freeze-thaw cycles). The 20 mM parent stock solutions were stored frozen at −20° C.
The activity of compounds in protecting SH SY5Y cells from a toxic insult of 10 μM Aβ(1-42) was assessed by using inhibition of MIT reduction as a measure of cell viability. An aliquot (3 μl) of test compound [various concentrations] in DMSO is added to 294 μl of Opti-Mem (containing 2% FBS, 1% Pen/Strep, 1% L-Gln) {daughter plate}. The well is mixed thoroughly. Then an aliquot (3 μl) of Aβ(1-42) [2 mM] is added to the daughter plate wells and again mixed thoroughly. 50 μl is then aspirated and dispensed into wells containing 50 μl media+SH SY5Ycells (cells are also plated in Opti-Mem, at ˜30,000 cells/well/50 μl). Final concentrations of compound on cells range from [50 μM] to [˜15 nM] with a final concentration of Aβ(1-42) of [10 μM].
Cell plates are incubated for 24 h and then the MTT assay (Shearman, 1999). is performed. Briefly, 15 μl of MTT (3-(4,5-dimethylthiazol-2-yl)-2,5-diphenyl-tetrazolium bromide) dye (from Promega) added to each well and the plates incubated in 5% CO2 at 37° C. for 4 hours. 100 μl Stop/solubilsation solution (from Promega) was added to each well and the plates were left overnight in humidified box at room temperature. The plate was shaken and the absorbance was recorded at both 570 nm and 650 nm. ΔA values were calculated by subtracting absorbance at 650 nm from absorbance at 570 nm, to reduce non-specific background absorbance. ΔA values from equivalent experiments were averaged and % cell viability was determined as follows:
Live cell controls: 1% DMSO in Opti-Mem
Dead cell controls: 0.1% Triton X-100 added to cells
Activity of Compounds in Protecting SH SY5Y Cells from a Toxic Insult of 10 μM Aβ(1-42) Using Inhibition of MTT Reduction as a Measure of Cell Viability

Another assay concerns the target T1, Aβ(1-42) (Homo sapiens, UniProt P05067).
T1 construct: dissolving Aβ(1-42) HCl salt in hexafluoroisopropanol (HFIP)
Description: Thioflavin-T fluorimetric assay of Aβ(1-42) aggregation. Type of assay: biochemical. The note with it: 10 μM Aβ(1-42); thioflavin-T fluorescence; read-out: IC50 inhibiting 10 μM Aβ(1-42) aggregation. As to the method: Aβ(1-42) was prepared for amyloid aggregation and toxicity assays by dissolving Aβ(1-42) HCl salt in hexafluoroisopropanol (HFIP), with brief sonication and vortexing. This solution of the Aβ(1-42) peptide in HFIP was stored at 4° C. @ 2 mM. When required, an aliquot of this stock solution was freeze-dried and dissolved in DMSO to 200 times the required final assay concentration (e.g. 2 mM for a final assay concentration of 10 μM). A 20 mM stock solution of each test compound was prepared in DMSO, and aliquots of these solutions were used to prepare further stock solutions of each test compound in DMSO, ranging in concentration from 3 μM up to 10 mM. These stock solutions were prepared for use as and when required and stored at −20° C. (maximum of 3 freeze-thaw cycles). The 20 mM parent stock solutions were stored frozen at −20° C. The daughter plate is sealed with silver seal and incubated at 37° C. for 24 and 48 hours for the Thioflavin T assay (LeVine and Scholten 1999). The activity of compounds in inhibiting 10 μM Aβ(1-42) aggregation was assessed by using a thioflavin-T fluorimetric assay. At each timepoint, a 50 or 100 μl aliquot is taken from each well of the daughter plate and dispensed into a black 96 well plate. Equal volume (50 or 100 μl) Thioflavin T [40 μM] (in Glycine buffer [50 mM]-NaOH pH 8.5) is added to each well. The plate was shaken and fluorescence was recorded using the top reader setting (10×1 msec), using excitation and emission filters of 440 (±15) and 485 (±10) nm, respectively. Fluorescence readings from equivalent experiments were averaged and % amyloid formation was determined as follows: Activity of Compounds in Inhibiting 10 μM Aβ(1-42) Aggregation Using Thioflavin-T Fluorimetric Assay

SMILES strings stand for the structures. Where two headings read alike, the source gives them in different places.

T1 sequence (P05067 672-713 limits assumed): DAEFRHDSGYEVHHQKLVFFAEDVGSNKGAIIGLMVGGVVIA

Take `Oc1cccc(Nc2ccc(Oc3ccc(F)cc3)cn2)c1` [Example 1, 3-[5-(4-Fluorophenoxy)pyridin-2-ylamino]-phenol]: the IC50 was found to be 16 µM in the assay on SH SY5Y cells (Homo sapiens, SH-SY5Y) and 5 µM at Aβ(1-42).
With `COc1cc(Nc2ccc(Oc3cccc(N(C)C)c3)cn2)ccc1F` [Example 17, [5-(3-Dimethylaminophenoxy)-pyridin-2-yl]-(4-fluoro-3-methoxy-phenyl)amine], the IC50 was 16 µM with SH SY5Y cells (Homo sapiens, SH-SY5Y) and 9 µM on Aβ(1-42).
Take `COc1cc(N(C)c2ccc(Oc3cccc(N(C)C)c3)cn2)ccc1F` [Example 26, [5-(3-Dimethylaminophenoxy)-pyridin-2-yl]-(4-fluoro-3-methoxy-phenyl)methylamine]: the concentration for half-maximal inhibition (IC50) in the assay on SH SY5Y cells (Homo sapiens, SH-SY5Y) amounted to 22 µM.
Regarding `COc1cc(Nc2ccc(Oc3cccc(N4CCOCC4)c3)cn2)ccc1F` [Example 27], the IC50 with SH SY5Y cells (Homo sapiens, SH-SY5Y) was determined as 8 µM; at Aβ(1-42) it was 11 µM.
As for `Oc1cccc(Nc2ccc(Oc3cccc(N4CCOCC4)c3)cn2)c1` [Example 31], the IC50 on Aβ(1-42) was 15 µM.
`Oc1cccc(Nc2ccc(Nc3cccc(O)c3)nn2)c1` [RS-0406, reference compound]: the IC50 in the assay with SH SY5Y cells worked out at 40 µM.
